Laboratory results as given in PubChem BioAssay (NCI).
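GI50 = concentration required for 50% inhibition of growth. The concentration for full growth arrest is given as TGI.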

Key:
Assay in all cases: DTP human tumour cell line panel, 384-well format
[1] = system: BT-549 breast
[2] = system: PC-3 prostate
[3] = system: A498 renal
[4] = system: UO-31 renal
[5] = system: CCRF-CEM leukemia
[6] = system: HL-60(TB) leukemia
[7] = system: MCF7 breast
[8] = system: OVCAR-5 ovarian
[9] = system: NCI/ADR-RES ovarian
[10] = system: MOLT-4 leukemia
[11] = system: MDA-MB-231 breast
[12] = system: HT29 colon
[13] = system: ACHN renal
[14] = system: K-562 leukemia
[15] = system: SK-MEL-2 melanoma
[16] = system: COLO 205 colon
[17] = system: T-47D breast
[18] = system: MDA-MB-468 breast
[19] = system: M14 melanoma
[20] = system: SF-295 CNS
[21] = system: OVCAR-8 ovarian
[22] = system: KM12 colon
[23] = system: HCC-2998 colon
[24] = system: U251 glioblastoma
[25] = system: NCI-H522 lung
[26] = system: SNB-19 CNS
[27] = system: SF-539 CNS
[28] = system: CAKI-1 renal
[29] = system: SF-268 CNS
[30] = system: TK-10 renal
[31] = system: SW-620 colon
[32] = system: HCT-15 colon
[33] = system: HOP-62 NSCLC
[34] = system: LOX IMVI melanoma
[35] = system: HOP-92 NSCLC
[36] = system: UACC-257 melanoma
[37] = system: OVCAR-3 ovarian
[38] = system: IGROV1 ovarian
[39] = system: OVCAR-4 ovarian
[40] = system: SN12C renal
[41] = system: SK-OV-3 ovarian
[42] = system: DU-145 prostate
[43] = system: NCI-H23 lung
[44] = system: SR leukemia
[45] = system: SK-MEL-5 melanoma
[46] = system: MDA-MB-435 melanoma
[47] = system: SK-MEL-28 melanoma
[48] = system: A549 NSCLC
[49] = system: NCI-H460 NSCLC
[50] = system: RXF 393 renal
[51] = system: MALME-3M melanoma
[52] = system: NCI-H322M lung
[53] = system: NCI-H226 lung
[54] = system: HCT-116 colon
[55] = system: UACC-62 melanoma
[56] = system: 786-0 renal

CCN(C(=O)c1cc(F)ccc1Oc1cncnc1N1CC2(CCN(CC3CCC(NS(=O)(=O)CC)CC3)CC2)C1)C(C)C (configuration not stated)
GI50 [1]: 92.7 µM
TGI [1]: > 100 µM
GI50 [2]: > 100 µM
TGI [2]: > 100 µM
GI50 [3]: 77.3 µM
TGI [3]: > 100 µM
GI50 [4]: > 100 µM
TGI [4]: > 100 µM
GI50 [5]: 10.1 µM
TGI [5]: 43.1 µM
GI50 [6]: > 100 µM
TGI [6]: > 100 µM
GI50 [7]: > 100 µM
TGI [7]: > 100 µM
GI50 [8]: > 100 µM
TGI [8]: > 100 µM
GI50 [9]: > 100 µM
TGI [9]: > 100 µM
GI50 [10]: 1.17 µM
TGI [10]: 3.67 µM
GI50 [11]: 18.7 µM
TGI [11]: > 100 µM
GI50 [12]: > 100 µM
TGI [12]: > 100 µM
GI50 [13]: > 100 µM
TGI [13]: > 100 µM
GI50 [14]: > 100 µM
TGI [14]: > 100 µM
GI50 [15]: 24.5 µM
TGI [15]: > 100 µM
GI50 [16]: 78.3 µM
TGI [16]: > 100 µM
GI50 [17]: 72.3 µM
TGI [17]: > 100 µM
GI50 [18]: 65.5 µM
TGI [18]: > 100 µM
GI50 [19]: > 100 µM
TGI [19]: > 100 µM
GI50 [20]: > 100 µM
TGI [20]: > 100 µM
GI50 [21]: > 100 µM
TGI [21]: > 100 µM
GI50 [22]: > 100 µM
TGI [22]: > 100 µM
GI50 [23]: 2.94 µM
TGI [23]: > 100 µM
GI50 [24]: > 100 µM
TGI [24]: > 100 µM
GI50 [25]: 92.3 µM
TGI [25]: > 100 µM
GI50 [26]: > 100 µM
TGI [26]: > 100 µM
GI50 [27]: > 100 µM
TGI [27]: > 100 µM
GI50 [28]: > 100 µM
TGI [28]: > 100 µM
GI50 [29]: > 100 µM
TGI [29]: > 100 µM
GI50 [30]: > 100 µM
TGI [30]: > 100 µM
GI50 [31]: > 100 µM
TGI [31]: > 100 µM
GI50 [32]: > 100 µM
TGI [32]: > 100 µM
GI50 [33]: > 100 µM
TGI [33]: > 100 µM
GI50 [34]: > 100 µM
TGI [34]: > 100 µM
GI50 [35]: 2.2 µM
TGI [35]: 41.5 µM
GI50 [36]: > 100 µM
TGI [36]: > 100 µM
GI50 [37]: 63.5 µM
TGI [37]: > 100 µM
GI50 [38]: > 100 µM
TGI [38]: > 100 µM
GI50 [39]: 82.6 µM
TGI [39]: > 100 µM
GI50 [40]: > 100 µM
TGI [40]: > 100 µM
GI50 [41]: > 100 µM
TGI [41]: > 100 µM
GI50 [42]: > 100 µM
TGI [42]: > 100 µM
GI50 [43]: > 100 µM
TGI [43]: > 100 µM
GI50 [44]: 81.2 µM
TGI [44]: > 100 µM
GI50 [45]: > 100 µM
TGI [45]: > 100 µM
GI50 [46]: > 100 µM
TGI [46]: > 100 µM
GI50 [47]: > 100 µM
TGI [47]: > 100 µM
GI50 [48]: > 100 µM
TGI [48]: > 100 µM
GI50 [49]: > 100 µM
TGI [49]: > 100 µM
GI50 [50]: 0.753 µM
TGI [50]: > 100 µM
GI50 [51]: > 100 µM
TGI [51]: > 100 µM
GI50 [52]: > 100 µM
TGI [52]: > 100 µM
GI50 [53]: > 100 µM
TGI [53]: > 100 µM
GI50 [54]: > 100 µM
TGI [54]: > 100 µM
GI50 [55]: > 100 µM
TGI [55]: > 100 µM
GI50 [56]: > 100 µM
TGI [56]: > 100 µM
